Results as given in patent publication US7049066B2, “Diagnosis and treatment of myocardial failure” (The Regents of the University of Colorado, priority 1997, dated 2006).

Tests used:
[1] = system: α-MHC; conditions: hypothyroid rats; cited from earlier work
[2] = system: isolated right ventricular (RV) trabeculae from end-stage failing human hearts; conditions: 1 nM T3, incubated for 4 or 12 hours

adrenergic receptor gene expression, T3 group compared to control group [2] | SMILES | production of α-MHC [1] | SRCA gene expression, T3 group compared to control group [2] | % α-MHC isoform mRNA present following incubation ([2]; p < .05 vs. no T3) [%] | % β-MHC isoform mRNA present following incubation ([2]; p < .05 vs. no T3) [%]
 | O=C(O)CCc1cc(I)c(Oc2ccc(O)cc2)c(I)c1 [3,5-diiodothyroproprionic acid] | increase the production of (α-MHC |  |  | 
no significant differences | N[C@@H](Cc1cc(I)c(Oc2ccc(O)c(I)c2)c(I)c1)C(=O)O [T3, 3,5,3′-triiodo-L-thyronine] |  | no significant differences | 24.5 ± 9.29 | 75.5 ± 9.29
